Assay results: patent publication US5686416A, “Increasing blood-brain barrier permeability with permeabilizer peptides” (priority 1993, dated 1997)

Tests used:
C. neoformans = experiment: Experimentally-induced cryptococcal meningitis in rabbits, CSF colony counts; type: in vivo, Cryptococcus neoformans; conditions: 1 mg AmB/kg daily i.v., Days 11 and 14
Procedure: Four day old cultures of C. neoformans containing 100 μg of chloramphenicol per mL were absorbed on cotton swabs, suspended in 15 mM phosphate-buffered saline, and adjusted to approximately 5×10^7 colony forming units (CFU)/mL. New Zealand White rabbits (2-3 kg) were immunosuppressed with 2.5 mg cortisone acetate administered intramuscularly (i.m.) beginning one day prior to inoculation with C. neoformans (Day 0), and once daily thereafter until study termination. On Day 1 rabbits were sedated with ketamine (100-150 mg) and xylazine (15-25 mg) i.m., and intracisternally inoculated with 0.3 mL of C. neoformans suspension. On Day 4 CSF was collected and plated on agar plates containing chloramphenicol to establish a baseline level for C. neoformans counts (CFU/mL), and drug treatment was then initiated. CSF samples were also withdrawn for C. neoformans counts on Days 7, 11 and 14. The duration of drug treatment was 10 days.
Each group size generally consisted of three to five animals. All treatments were administered via an ear vein, and permeabilizer A-7 was always administered immediately prior to AmB. CSF samples were always withdrawn prior to drug therapy on treatment days.

9L Glioma cells = experiment: Survival time of rats with brain tumor implants; type: in vivo
Procedure: Male Fischer 344 rats (200-250 g) were anesthetized with ketamine HCL (100 mg/kg) and acepromazine (10 mg/kg). The animals were placed in a stereotaxic device. The head of each animal was shaved and a midline incision was made to expose the skull. A small hole was drilled over the right sensorimotor cortex. A […] cell suspension (250,000 9L Glioma cells) was injected over 5 minutes into the right caudate putamen of each animal and the scalp sutured. Animals were observed daily for signs of failing health. When signs of very poor health were observed (eye hemorrhage or loss of righting reflex) animals were euthanatized and the brains examined for presence of tumor.
The results are shown in Table III as median survival with range.

dopamine receptors = conditions: rats; 300 μg domperidone with or without 10 μg permeabilizer A-7, one hour before apomorphine 0.75 mg/kg s.c.
Procedure: Domperidone is a dopamine receptor antagonist used clinically as an anti-emetic by virtue of its action at the area postrema outside the blood-brain barrier.
The activity cages were standard size rat cages with two photocell beams running across the floor of each cage. Any movement of the rat through either of the beams was recorded by a computer. Locomotor activity was measured as the number of beam breaks in a sequence of 10-minute intervals over a two hour period.
The motor activity of the rats was measured in activity cages over 10-minute intervals for up to 2 hours post-apomorphine injection.

blood-brain barrier [1] = experiment: Uptake of radiolabelled substances of different molecular weights into the brain (Table I)
Procedure: The animals were euthanatized 10 minutes after the co-administration and the radioactivity present in brain was measured as described previously for ^14 C sucrose.

opiate receptor = experiment: Tail flick assay, antinociceptive effect of loperamide; type: in vivo; conditions: mice; nalorphine 10 mg/kg i.p. 15 minutes before
Procedure: Female Nalb/C mice weighing approximately 20 g were used. The tail flick assay was performed using a Tail Flick Apparatus model TF6 (Emdie Instruments, Maidens, Va.). The intensity of the heat source was adjusted daily to yield a reaction time between 2.0 and 3.2 seconds in naive untreated mice. The maximum time of exposure to the heat source allowed was 7.5 seconds. The tail withdrawal reaction time of each mouse was measured 4 times at 10 second intervals immediately prior to intravenous injections of the experimental substances via the tail vein. The last three values were averaged and taken as baseline value (Vo). Another set of four measurements was taken at the following intervals after tail vein injection of the opiate receptor agonist loperamide with and without the other agents: immediately, 5 min, 10 min, 15 min, 30 min, and 60 min. The last three values for each of these time points (V) were averaged. […] The results were expressed as percent of maximum antinociceptive response according to the formula: 100×(V-Vo)/(7.5-Vo).

angiotensin II receptors = experiment: Drinking behavior of rats with angiotensin II analogue; type: in vivo; conditions: 1 μg β-Asp^1 -angiotensin II, 10 μg permeabilizer A-7, with or without 8 μg saralasin i.v., 1 hour
Procedure: The volume of water consumed by each rat over a 1 hour interval was measured.
The saralasin was given because it is a known angiotensin II receptor antagonist. Again, the volume of water consumed by each rat over a 1 hour interval was measured.

blood-brain barrier [2] = experiment: Dose response of blood-brain barrier permeabilizers, sucrose uptake studies; type: in vivo; conditions: mice; various amounts; FIGS. 3c and 3d
Procedure: Female Balb/C mice weighing approximately 20 g were used. All solutions were prepared in sterile phosphate-buffered saline. […] In other experiments, mice were euthanitized 10 minutes after the ^14 C sucrose administration. Blood was collected in heparinized tubes and centrifuged to separate plasma from the resulting pellet. Radioactivity in a 100 μl aliquot of plasma was measured by liquid scintillation counting after the addition of 15 ml of Aquasol-2 (Dupont). The brain was removed and homogenized in 2.5 ml of water and 2.5 ml of 1% sodium dodecyl sulfate (SDS). One ml of the homogenate was aliquoted and added to 15 ml of Aquasol-2 for counting. Brain uptake of sucrose was calculated and graphically expressed as percent of injected dose×100. […] Each data point represents the mean ± s.d. from 8 mice.

bradykinin receptor = target: T1, bradykinin receptor (Rattus norvegicus, UniProt P25023); experiment: Displacement of [^3 H]-bradykinin binding on rat brain endothelial cells; conditions: no competing peptide; corrected for nonspecific binding
T1 construct: endogenous in cells; host or cells: cultured rat brain microvessel endothelial cells, passages 9 to 12, intact monolayers
T1 sequence (P25023 1-396): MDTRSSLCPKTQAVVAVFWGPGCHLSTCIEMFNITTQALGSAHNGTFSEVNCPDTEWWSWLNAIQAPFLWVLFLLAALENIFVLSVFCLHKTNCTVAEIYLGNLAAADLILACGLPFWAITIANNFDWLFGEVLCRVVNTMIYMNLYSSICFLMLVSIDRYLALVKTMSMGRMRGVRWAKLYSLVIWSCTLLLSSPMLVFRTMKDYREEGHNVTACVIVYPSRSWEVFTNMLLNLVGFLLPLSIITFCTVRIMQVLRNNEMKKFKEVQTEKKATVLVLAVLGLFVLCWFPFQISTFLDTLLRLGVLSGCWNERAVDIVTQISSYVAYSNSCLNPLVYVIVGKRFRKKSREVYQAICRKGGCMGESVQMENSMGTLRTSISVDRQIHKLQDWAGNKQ
Procedure: Endothelial cells employed in this study were isolated from individual rat brain microvessels and cultured. For binding studies, cells at passages 9 to 12 were seeded (at a 1:5 split) onto gelatinized 24-well tissue culture dishes. Binding experiments were conducted on day 7 after seeding. […] All subsequent manipulations were performed in the cold room, unless otherwise indicated.
To initiate binding incubations, the buffer was removed from cell layers and replaced with 0.4 mL fresh binding buffer at 4° C. containing [^3 H-pro^2,3 ]-bradykinin ([^3 H]-bradykinin) and competing non-radioactive peptides at concentrations indicated for the individual experiments. Triplicate wells were used for each experimental condition. For later determination of cell number, where indicated, certain wells were covered with binding buffer without radioligand and incubated in parallel with the other samples. […]
The dissociated cells were collected, diluted into 10 mL Isoton diluent, and cell numbers were determined with a Coulter counter. […] The two aliquots were pooled into a single scintillation vial, 10 mL of Hydrofluor scintillation fluid was added and samples were counted for tritium in a scintillation counter. […] Aliquots of each [^3 H]-bradykinin dilution that was added to the cells were counted along with the other samples. […]

[3] = Table IV, additional experiment

## C[C@@H]1[C@H](O)[C@@H](C)/C=C/C=C/C=C/C=C/C=C/C=C/C=C/[C@H](O[C@@H]2O[C@H](C)[C@@H](O)[C@H](N)[C@@H]2O)C[C@@H]2O[C@](O)(C[C@@H](O)C[C@@H](O)[C@H](O)CC[C@@H](O)C[C@@H](O)CC(=O)O[C@H]1C)C[C@H](O)[C@H]2C(=O)O [AmB, Amphotericin B]
C. neoformans
  CSF C. neoformans counts compared to controls: significantly lowered

## N.N.[Cl][Pt][Cl] [Cisplatin]
9L Glioma cells; Table III, Fischer 344 rats, 9L glioma, i.v. treatment days 5 through 14, cisplatin 200 μg/rat, A-7 50 μg, bradykinin 1 mg
  Median Survival: 13 days
9L Glioma cells; Table III, Fischer 344 rats, 9L glioma, treatment days 5 through 14
  Survival, Range: 9 to 18 days
9L Glioma cells; [3]
  Median Survival: 15.5 days
  Survival, Range: 12 to 18 days

## O=c1[nH]c2ccccc2n1CCCN1CCC(n2c(=O)[nH]c3cc(Cl)ccc32)CC1 [Domperidone]
Dopamine receptors
  effect on motor activity induced by apomorphine: little, if any, effect

## OC[C@H]1O[C@@](CO)(O[C@H]2O[C@H](CO)[C@@H](O)[C@H](O)[C@H]2O)[C@@H](O)[C@@H]1O [^14 C-Sucrose, Sucrose]
blood-brain barrier [1]; mouse, in vivo, iv
  % Injected Dose, +10 μg A-7: 0.165 ± 0.049 % Injected Dose
  % Injected Dose, Control: 0.059 ± 0.014 % Injected Dose

## C=CCN1CC[C@]23c4c5ccc(O)c4O[C@H]2[C@@H](O)C=C[C@H]3[C@H]1C5 [nalorphine]
Opiate receptor
  effect of pretreatment on the antinociceptive response to permeabilizer A-7 and loperamide: completely antagonized

## CNCC(=O)N[C@@H](CCCN=C(N)N)C(=O)N[C@H](C(=O)N[C@@H](Cc1ccc(O)cc1)C(=O)N[C@H](C(=O)N[C@@H](Cc1cnc[nH]1)C(=O)N1CCC[C@H]1C(=O)N[C@@H](C)C(=O)O)C(C)C)C(C)C [saralasin]
Angiotensin II receptors
  water consumption: remained within a normal range

## Inulin [^3 H-Inulin]
blood-brain barrier [1]; mice, brain, labelled molecule i.v. with 10 μg permeabilizer A-7, 10 minutes, mean ± s.d.
  % Injected Dose, +10 μg A-7: 0.110 ± 0.016 % Injected Dose
blood-brain barrier [1]; mice, brain, labelled molecule i.v. with saline, 10 minutes, mean ± s.d.
  % Injected Dose, Control: 0.075 ± 0.018 % Injected Dose

## [D-Arg^0 ]-A-7 [A-14]
blood-brain barrier [2]
  uptake of ^14 C-sucrose into the brain compared with A-7: comparable to A-7

## [dehydro Pro^2,7 ]-A-7 [A-9]
blood-brain barrier [2]
  uptake of ^14 C-sucrose into the brain compared with A-7: comparable to A-7

## ^3 H-Bovine Serum Albumin: radiolabelled bovine serum albumin, mol. weight 68,000
blood-brain barrier [1]; mouse, in vivo, iv
  % Injected Dose, +10 μg A-7: 0.209 ± 0.056 % Injected Dose
  % Injected Dose, Control: 0.333 ± 0.098 % Injected Dose

## arginine-proline-proline-glycine-phenylalanine-serine-proline-phenylalanine-arginine [[^3 H]-bradykinin]
Bradykinin receptor
  Scatchard analysis of [^3 H]-bradykinin binding: two affinity classes of [^3 H]-bradykinin binding site

B1: ^3 H-Ovalbumin: radiolabelled ovalbumin, mol. weight 46,000 (protein, UniProt P01012 2-386, looked up)
Ovalbumin: GSIGAASMEFCFDVFKELKVHHANENIFYCPIAIMSALAMVYLGAKDSTRTQINKVVRFDKLPGFGDSIEAQCGTSVNVHSSLRDILNQITKPNDVYSFSLASRLYAEERYPILPEYLQCVKELYRGGLEPINFQTAADQARELINSWVESQTNGIIRNVLQPSSVDSQTAMVLVNAIVFKGLWEKAFKDEDTQAMPFRVTEQESKPVQMMYQIGLFRVASMASEKMKILELPFASGTMSMLVLLPDEVSGLEQLESIINFEKLTEWTSSNVMEERKIKVYLPRMKMEEKYNLTSVLMAMGITDVFSSSANLSGISSAESLKISQAVHAAHAEINEAGREVVGSAEAGVDAASVSEEFRADHPFLFCIKHIATNAVLFFGRCVSP
modifications: tritium label
blood-brain barrier [1]; mouse, in vivo, iv
  % Injected Dose, +10 μg A-7: 0.093 ± 0.017 % Injected Dose
  % Injected Dose, Control: 0.079 ± 0.016 % Injected Dose

B2: ^3 H-RNase: radiolabelled RNase, mol. weight 12,600 (protein, UniProt P61823 27-150, looked up)
Ribonuclease pancreatic: KETAAAKFERQHMDSSTSAASSSNYCNQMMKSRNLTKDRCKPVNTFVHESLADVQAVCSQKNVACKNGQTNCYQSYSTMSITDCRETGSSKYPNCAYKTTQANKHIIVACEGNPYVPVHFDASV
modifications: tritium label
blood-brain barrier [1]; mouse, in vivo, iv
  % Injected Dose, +10 μg A-7: 0.117 ± 0.030 % Injected Dose
  % Injected Dose, Control: 0.123 ± 0.039 % Injected Dose
